From patent US11702422B2, “Imidazopyridazines as modulators of IL-17” (Janssen Pharmaceutica NV, priority 2020, dated 2023) come the findings set out here.

SMILES strings stand for the structures.

For orientation: IC50 means the point on the concentration scale where inhibition reaches its midpoint. Read a high IC50 as weaker potency in that assay.

Assay [1] concerns the target IL-17A(FLAG-Tagged): IL-17RA(His-Tagged) (Homo sapiens, UniProt Q16552, K93Q). Put plainly: IL-17A(FLAG-Tagged): IL-17RA(His-Tagged) Binding Disruption Eu-HTRF Assay. The note with it: IL-17A/IL-17RA binding disruption, simple average if tested more than once. An outline of the steps: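 IC50 comes from a one-site competition fit of the HTRF 665/620 nm ratio. Compound dilutions (2-fold, 22 points) were held 1 h rt with FLAG-tagged IL-17A dimer, then His-tagged IL-17RA plus Eu-cryptate anti-FLAG and D2 anti-His antibodies were added for 2 h rt.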
(In general: Time-resolved FRET reads energy transfer from a long-lived donor to a nearby acceptor.)

The subject of assay [2] is IL-17A-induced G-CSF production in human normal keratinocyte (NHK). Put plainly: NHK Assay: IL-17A-induced G-CSF production in human normal keratinocytes. In kind it is cell-based. The note with it: Homo sapiens, Keratinocyte, 24 h, adult normal human keratinocytes, IL-17A 5 ng/mL, simple average if tested more than once. An outline of the steps: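 Titrated compound plus recombinant human IL-17A (pre-incubated 1 h, rt) were applied to adult human keratinocytes at 5 ng/mL cytokine, 0.2% DMSO. Cultures ran 24 h at 37° C, and supernatant G-CSF was measured by HTRF to derive IC50.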

UniProt Q16552, sequence (Q16552 with tags, fused parts or gaps K93Q): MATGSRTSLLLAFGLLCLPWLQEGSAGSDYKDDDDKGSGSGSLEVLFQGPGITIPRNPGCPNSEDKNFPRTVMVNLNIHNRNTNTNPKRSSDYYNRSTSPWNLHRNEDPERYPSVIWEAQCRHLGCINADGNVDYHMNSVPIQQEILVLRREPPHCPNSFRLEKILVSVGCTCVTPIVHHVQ

Take `O=C(CC1CC(F)(F)C1)N[C@@H](c1cnn2cc([C@@H](NC(=O)c3nonc3C3CC3)C3CCC(F)(F)CC3)nc2c1)C1CC1` [Example 289, 4-Cyclopropyl-N—((S)-(7-((R)-cyclopropyl(2-(3,3-difluorocyclobutyl)acetamido)methyl)imidazo[1,2-b]pyridazin-2-yl)(4,4-difluorocyclohexyl)methyl)-1,2,5-oxadiazole-3-carboxamide]: the half-inhibitory concentration (IC50) in assay [1] was found to be 37 nM; in assay [2], 23 nM.

As to `Cc1nonc1C(=O)N[C@H](c1cn2ncc([C@H](NC(=O)CCC3CC3(F)F)C3CC3)cc2n1)C1CCC(F)(F)CC1` (stereo partly drawn) [Example 290, N-((1S)-(7-((1R)-Cyclopropyl(3-(2,2-difluorocyclopropyl)propanamido)methyl)imidazo[1,2-b]pyridazin-2-yl)(4,4-difluorocyclohexyl)methyl)-4-methyl-1,2,5-oxadiazole-3-carboxamide], the values for the IC50 in assay [1] and in assay [2] were 83 nM and 220 nM, respectively.

Regarding `Cc1nonc1C(=O)N[C@H](c1cn2ncc([C@H](NC(=O)CC3CCCC3(F)F)C3CC3)cc2n1)C1CCC(F)(F)CC1` (stereo partly drawn) [Example 291, N-((1S)-(7-((1R)-Cyclopropyl(2-(2,2-difluorocyclopentyl)acetamido)methyl)imidazo[1,2-b]pyridazin-2-yl)(4,4-difluorocyclohexyl)methyl)-4-methyl-1,2,5-oxadiazole-3-carboxamide], the 50% inhibitory concentration (IC50) in assay [1] worked out at 370 nM; in assay [2], 4000 nM.

Take `CC(C)Oc1nocc1C(=O)N[C@H](c1cn2ncc([C@H](NC(=O)CC3CC(F)(F)C3)C3CC3)cc2n1)C1CCC(F)(F)CC1` [Example 292, N—((S)-(7-((R)-Cyclopropyl(2-(3,3-difluorocyclobutyl)acetamido)methyl)imidazo[1,2-b]pyridazin-2-yl)(4,4-difluorocyclohexyl)methyl)-3-isopropoxyisoxazole-4-carboxamide]: the IC50 is 220 nM in assay [1] and 870 nM in assay [2].

`O=C(CC1CC(F)(F)C1)N[C@@H](c1cnn2cc([C@@H](NC(=O)c3conc3OCC(F)F)C3CCC(F)(F)CC3)nc2c1)C1CC1` [Example 293, N—((S)-(7-((R)-Cyclopropyl(2-(3,3-difluorocyclobutyl)acetamido)methyl)imidazo[1,2-b]pyridazin-2-yl)(4,4-difluorocyclohexyl)methyl)-3-(2,2-difluoroethoxy)isoxazole-4-carboxamide]: the 50% inhibitory concentration (IC50) is 160 nM in assay [1] and 540 nM in assay [2].

Turning to `O=C(CC1CC(F)(F)C1)N[C@@H](c1cnn2cc([C@@H](NC(=O)c3conc3COC(F)F)C3CCC(F)(F)CC3)nc2c1)C1CC1` [Example 294, N—((S)-(7-((R)-Cyclopropyl(2-(3,3-difluorocyclobutyl)acetamido)methyl)imidazo[1,2-b]pyridazin-2-yl)(4,4-difluorocyclohexyl)methyl)-3-((difluoromethoxy)methyl)isoxazole-4-carboxamide], the concentration for half-maximal inhibition (IC50) in assay [1] turned out to be 86 nM; in assay [2] it was 38 nM.

On to `O=C(CC12CC(F)(C1)C2)N[C@@H](c1cnn2cc([C@@H](NC(=O)c3conc3OCC(F)F)C3CCC(F)(F)CC3)nc2c1)C1CC1` [Example 295, N—((S)-(7-((R)-Cyclopropyl(2-(3-fluorobicyclo[1.1.1]pentan-1-yl)acetamido)methyl)imidazo[1,2-b]pyridazin-2-yl)(4,4-difluorocyclohexyl)methyl)-3-(2,2-difluoroethoxy)isoxazole-4-carboxamide], for which the IC50 in assay [1] was found to be 150 nM; in assay [2], 710 nM.

As for `O=C(CC12CC(F)(C1)C2)N[C@@H](c1cnn2cc([C@@H](NC(=O)c3nonc3C3CC3)C3CCC(F)(F)CC3)nc2c1)C1CC1` [Example 296, 4-Cyclopropyl-N—((S)-(7-((R)-cyclopropyl(2-(3-fluorobicyclo[1.1.1]pentan-1-yl)acetamido)methyl)imidazo[1,2-b]pyridazin-2-yl)(4,4-difluorocyclohexyl)methyl)-1,2,5-oxadiazole-3-carboxamide], the concentration for half-maximal inhibition (IC50) is 22 nM in assay [1] and 50 nM in assay [2].

Turning to `O=C(CC1(C(F)(F)F)CC1)N[C@@H](c1cnn2cc([C@@H](NC(=O)c3nonc3C3CC3)C3CCC(F)(F)CC3)nc2c1)C1CC1` [Example 297, 4-Cyclopropyl-N—((S)-(7-((R)-cyclopropyl(2-(1-(trifluoromethyl)cyclopropyl)acetamido)methyl)imidazo[1,2-b]pyridazin-2-yl)(4,4-difluorocyclohexyl)methyl)-1,2,5-oxadiazole-3-carboxamide], the IC50 in assay [1] was 31 nM; in assay [2], 87 nM.

Take `CC(C)Oc1nocc1C(=O)N[C@H](c1cn2ncc([C@H](NC(=O)CCC(F)F)C3CC3)cc2n1)C1CCC(F)(F)CC1` [Example 302, N—((S)-(7-((R)-Cyclopropyl(4,4-difluorobutanamido)methyl)imidazo[1,2-b]pyridazin-2-yl)(4,4-difluorocyclohexyl)methyl)-3-isopropoxyisoxazole-4-carboxamide]: the IC50 in assay [1] was 1200 nM; in assay [2], greater than 20000 nM.

For `CC(C)n1nccc1C(=O)N[C@H](c1cn2ncc([C@H](NC(=O)COCC(F)(F)F)C3CC3)cc2n1)C1CCC(F)(F)CC1` [Example 303, N—((S)-(7-((R)-Cyclopropyl(2-(2,2,2-trifluoroethoxy)acetamido)methyl)imidazo[1,2-b]pyridazin-2-yl)(4,4-difluorocyclohexyl)methyl)-1-isopropyl-1H-pyrazole-5-carboxamide], the IC50 in assay [1] is 250 nM; in assay [2], 280 nM.

On to `Cc1nonc1C(=O)N[C@H](c1cn2ncc([C@H](NC(=O)COCC(F)F)C3CC3)cc2n1)C1CCC(F)(F)CC1` [Example 304, N—((S)-(7-((R)-Cyclopropyl(2-(2,2-difluoroethoxy)acetamido)methyl)imidazo[1,2-b]pyridazin-2-yl)(4,4-difluorocyclohexyl)methyl)-4-methyl-1,2,5-oxadiazole-3-carboxamide], for which the results for the IC50 in assay [1] and in assay [2] were 620 nM and 910 nM, respectively.

For `CC(C)n1nccc1C(=O)N[C@H](c1cn2ncc([C@H](NC(=O)COCC(F)F)C3CC3)cc2n1)C1CCC(F)(F)CC1` [Example 305, N—((S)-(7-((R)-Cyclopropyl(2-(2,2-difluoroethoxy)acetamido)methyl)imidazo[1,2-b]pyridazin-2-yl)(4,4-difluorocyclohexyl)methyl)-1-isopropyl-1H-pyrazole-5-carboxamide], the IC50 in assay [1] stood at 140 nM; in assay [2], 1100 nM.

As for `Cc1nonc1C(=O)N[C@H](c1cn2ncc([C@H](NC(=O)COC3CC3)C3CC3)cc2n1)C1CCC(F)(F)CC1` [Example 306, N—((S)-(7-((R)-(2-Cyclopropoxyacetamido)(cyclopropyl)methyl)imidazo[1,2-b]pyridazin-2-yl)(4,4-difluorocyclohexyl)methyl)-4-methyl-1,2,5-oxadiazole-3-carboxamide], the IC50 in assay [1] was determined as 210 nM; in assay [2], 1500 nM.

For the molecule `CC(C)n1nccc1C(=O)N[C@H](c1cn2ncc([C@H](NC(=O)COC3CC3)C3CC3)cc2n1)C1CCC(F)(F)CC1` [Example 307, N—((S)-(7-((R)-(2-Cyclopropoxyacetamido)(cyclopropyl)methyl)imidazo[1,2-b]pyridazin-2-yl)(4,4-difluorocyclohexyl)methyl)-1-isopropyl-1H-pyrazole-5-carboxamide], the IC50 was determined as 110 nM in assay [1] and 420 nM in assay [2].

Turning to `Cc1nonc1C(=O)N[C@H](c1cn2ncc([C@H](NC(=O)COC3CC(F)(F)C3)C3CC3)cc2n1)C1CCC(F)(F)CC1` [Example 308, N—((S)-(7-((R)-Cyclopropyl(2-(3,3-difluorocyclobutoxy)acetamido)methyl)imidazo[1,2-b]pyridazin-2-yl)(4,4-difluorocyclohexyl)methyl)-4-methyl-1,2,5-oxadiazole-3-carboxamide], the IC50 worked out at 200 nM in assay [1] and 1700 nM in assay [2].

For the molecule `CC(C)n1nccc1C(=O)N[C@H](c1cn2ncc([C@H](NC(=O)COC3CC(F)(F)C3)C3CC3)cc2n1)C1CCC(F)(F)CC1` [Example 309, N—((S)-(7-((R)-Cyclopropyl(2-(3,3-difluorocyclobutoxy)acetamido)methyl)imidazo[1,2-b]pyridazin-2-yl)(4,4-difluorocyclohexyl)methyl)-1-isopropyl-1H-pyrazole-5-carboxamide], the results for the IC50 in assay [1] and in assay [2] were 100 nM and 290 nM, respectively.

For `Cc1nonc1C(=O)N[C@H](c1cn2ncc([C@H](NC(=O)CC(C)(C)C(F)F)C3CC3)cc2n1)C1CCC(F)(F)CC1` [Example 312, N—((S)-(7-((R)-Cyclopropyl(4,4-difluoro-3,3-dimethylbutanamido)methyl)imidazo[1,2-b]pyridazin-2-yl)(4,4-difluorocyclohexyl)methyl)-4-methyl-1,2,5-oxadiazole-3-carboxamide], the IC50 is 370 nM in assay [1] and 3200 nM in assay [2].

Consider `CC(C)n1nccc1C(=O)N[C@H](c1cn2ncc([C@H](NC(=O)CC(C)(C)C(F)F)C3CC3)cc2n1)C1CCC(F)(F)CC1` [Example 313, N—((S)-(7-((R)-Cyclopropyl(4,4-difluoro-3,3-dimethylbutanamido)methyl)imidazo[1,2-b]pyridazin-2-yl)(4,4-difluorocyclohexyl)methyl)-1-isopropyl-1H-pyrazole-5-carboxamide], for which the concentration for half-maximal inhibition (IC50) worked out at 160 nM in assay [1] and 480 nM in assay [2].
